Experimental findings from patent publication US7078059B2, “Treatment of bone diseases” (Shire Holdings AG, priority 2000, dated 2006) are described below.

Assay [1] concerns osteoclast precursors in mouse bone marrow. The conditions noted are these: for Relative TRAP 5b activities, Mean ± SD: relative to mean of baseline group. The text has this:
A method known as mouse bone marrow culture system is the one most widely used to study osteoclast differentiation. Originally, this method was developed by Takahashi et al. (1988a). Osteoclast precursors in mouse bone marrow can be induced to form multinucleated osteoclast-like cells (MNC) in the presence of either an active metabolite of vitamin D3 (1,25(OH)2D3) or parathyroid hormone (PTH). […] They form pits on bone or dentine slices (Takahashi et al. 1988a, Hattersley and Chambers 1989, Shinar et al. 1990); they express high levels of tartrate-resistant acid phosphatase (TRAP) and calcitonin receptors (Takahashi et al. 1988b, Shinar et al. 1990); and they respond to calcitonin (Takahashi et al. 1988a) and prostaglandin E2 (Collins and Chambers 1992). Thus, the method is an ideal one with which to study both stimulators and inhibitors of osteoclast differentiation.
In the original culture system, the osteoclast formation was determined after an 8-day culture. In bone marrow, both non-adherent osteoclast precursors and stromal cells are present, the latter of which are needed to support osteoclast formation. The number of osteoclasts formed is generally determined by counting the number of TRAP-positive MNC containing at least three nuclei (Takahashi et al. 1988a).
We have modified the original assay so that we culture 1×10^6 mouse marrow cells/ml for 6 days. […] Instead of counting of the number of differentiated osteoclasts formed, we measured the amount of TRAP liberated from osteoclasts into the culture medium using a fast, simple TRAP immunoassay (Halleen et al. 1999) presentation in the Annual Meeting of the American Society for Bone and Mineral Research, Sep. 30-Oct. 4, 1999, in St. Louis, Mo., USA.
8-10-week old mice were killed with CO2. Tibia and femora were dissected free from adhering soft tissues. The bone ends were cut off with a scalpel and the marrow was flushed with α-Minimal Essential Medium (α-MEM, Gibco BRL, Paisley, UK) supplemented with 100 IU/ml penicillin and 100 μg/ml streptomycin. A 10 ml syringe with a 27 gauge needle was used for flushing. Cells were centrifuged at 600×G for 10 minutes and the cell pellet was resuspended in -MEM containing 10% fetal calf serum. Cells were allowed to attach to plastic for 2 h at 37° C. in a 5% CO2 incubator to allow removal of monocytes and macrophages. Nonadherent cells were duly removed, and the […] bone marrow cells were cultured in 24-well plates (1×10^6 cells/well=1 ml) for 6 days. Half of the media were changed at day 3 and the treatments replaced. At the end of the culture, the plates were fixed with 2% paraformaldehyde in PBS for 20 minutes. Osteoclast formation was determined by measuring TRAP activity from the culture media using the novel TRAP immunoassay (vide infra), where we use a polyclonal TRAP antiserum prepared in rabbits against purified human bone TRAP. The TRAP antibody was bound to anti-rabbit IgG coated microtiter wells (Gibco BRL, Paisley, UK), and medium TRAP was then bound to the antibody. The activity of bound TRAP was measured in sodium acetate buffer using pNPP as substrate.
In this study, the effect of the lanthanum (III) ion on osteoclast differentiation in the presence of 1,25-dihydroxyvitamin D3 was tested. The following sample groups were included: • Baseline (including vehicle) • Control (Baseline without 1,25-dihydroxyvitamin D3) • Baseline+100 ng/ml lanthanum • Baseline+500 ng/ml lanthanum • Baseline+1000 ng/ml lanthanum • Baseline+5000 ng/ml lanthanum • Baseline+15000 ng/ml lanthanum
Six replicates were included in each group, and the test was performed twice. Baseline without 1,25-dihydroxyvitamin D3 was used as a control to show the test system allows inhibition of osteoclast differentiation to be detected.

Assay [2] concerns mouse bone marrow derived osteoprogenitor cells. Kind of assay: In vitro osteoblast differentiation assay (cellular alkaline phosphatase). It is filed as cell-based. Particulars: LA number = ng/ml lanthanum. The source says: We have established a culture model in which mouse bone marrow derived osteoprogenitor cells first proliferate and then differentiate to osteoblasts capable of forming mineralized bone nodules (Qu et al. 1998, Qu et al. 1999). We confirmed this by following the expression of several markers of the osteoblastic phenotype and by studying the morphology of cultures at light and electron microscopic level. […] Thus, this culture system fulfills requirements of an in vitro model useful for studying differentiation of osteoprogenitor cells into bone synthesizing osteoblasts. […] Animals were killed by cervical dislocation. Both femora were removed and the soft tissues were detached aseptically. Metaphyses from both ends were cut off and bone marrow cells were collected by flushing the diaphysis with culture medium: phenol red-free-α-modified essential medium (α-MEM (Gibco BRL, Paisley, UK)). […] The cells were cultured for 6 days and half of the media […] days. […] Cells were washed with warm PBS and adherent cells were detached using trypsin-EDTA. […] The test substances were added at the beginning of the secondary culture without estrogen, and every time when the medium was changed. The number of osteoblasts formed was determined by measuring cellular alkaline phosphatase (ALP) activity in the culture. […] Louis, Mo., USA), and overnight freezing. ALP activity was determined colorimetrically using p-nitrophenylphosphate as substrate at pH 9.7 and determining the optical density at 405 nm. In parallel, protein contents of the wells were determined by the BIO-RAD protein assay, and the specific ALP activity is expressed as units/mg protein. […] Osteoblast differentiation was determined by measuring cellular alkaline phosphatase (ALP) activities and total protein amounts from cell lysates. The ALP activities were divided with the corresponding protein amounts to obtain specific activities of ALP. The results are shown as relative specific activities obtained by dividing each individual value with the mean value of the baseline group.

Setting [3] is: first osteoblast differentiation assay, relative to mean of baseline group, 8 days, Control = Baseline+10^−10 M 17-estradiol.
The mark [4] stands for this setting: preliminary osteoblast differentiation assay, relative to mean of baseline group, 8 days, Control = Baseline+10^−10 M 17-estradiol.
Where [5] appears, read: second osteoblast differentiation assay, relative to mean of baseline group, 8 days, Control = Baseline+10^−10 M 17-estradiol.

Values joined by “and” are separate entries in the source; they are usually repeats but may differ in a detail not shown here. Identical values can stand only once. “Also recorded” adds a separate entry of the source. Like-named read-outs stand apart in the source and are kept apart here.

`O.O.O.O.O=C([O-])[O-].O=C([O-])[O-].O=C([O-])[O-].[La+3].[La+3]` [LA 100, lanthanum carbonate tetrahydrate]: the “Relative TRAP 5b activities, Mean ± SD” value in assay [1] (first osteoclast differentiation assay, with 1,25-dihydroxyvitamin D3, 6 days, LA number = ng/ml lanthanum) is 0.87 ± 0.33. The “Relative TRAP 5b activities, Mean ± SD” value in assay [1] (second osteoclast differentiation assay, with 1,25-dihydroxyvitamin D3, 6 days, LA number = ng/ml lanthanum) was 0.54 ± 0.15(**). Besides, the “Combined results on osteoclast differentiation (relative TRAP 5b activity), Mean ± SD” value in assay [1] (tables 4-6 combined, number 18 (LA 100) or 12, LA number = ng/ml lanthanum) was 0.70 ± 0.27 (**). Also, the “Relative TRAP 5b activities, Mean ± SD” value in assay [1] (third osteoclast differentiation assay with LA 100 (100 ng/ml lanthanum)) was 0.69 ± 0.21(*). Further, the “Effect on osteoblast differentiation, in words” value in assay [2] (lanthanum (III) ion = 100-15000 ng/ml, 17-estradiol 10^−10 M) is “activated osteoblast differentiation significantly; also recorded: activate both bone formation and osteoblast differentiation”. In addition, in assay [2] (setting [3]), the “Relative specific activities of intracellular alkaline phosphatase, Mean ± SD” value stood at 1.05 ± 0.17; the “Relative specific activities of intracellular alkaline phosphatase, replicates 1-8” value was 0.95 and 1.04 and 0.98. In assay [2] (setting [4]), the “Relative specific activities of intracellular alkaline phosphatase, Mean ± SD” value amounted to 1.15 ± 0.13; the “Relative specific activities of intracellular alkaline phosphatase, replicates 1-4” value was 0.98 and 1.29 and 1.19 and 1.12. Moreover, in assay [2] (setting [5]), the “Relative specific activities or intracellular alkaline phosphatase, Mean ± SD” value was determined as 1.14 ± 0.22; the “Relative specific activities or intracellular alkaline phosphatase, replicates 1-6” value was 0.91 and 0.94 and 1.34 and 1.20 and 1.00 and 1.43. For the same compound, the “Combined results on osteoblast differentiation (relative specific ALP activity), Mean ± SD” value in assay [2] (tables 8-10 combined, number 18, Control = Baseline+10^−10 M 17-estradiol) is recorded as 1.10 ± 0.18 (*).
